Test results taken from PMC5697763 (Bioconjugate chemistry, 2016).
“And” between values parts separate entries of the source, which are not always exact repeats. Equal values may be shown once. Read-outs that look alike come from different tables or passages of the source.

Target: LMCA1 (Listeria monocytogenes serovar 1/2a, UniProt Q8Y8Q5)
Experiment: biochemical
Assay type: biochemical

Chain of LMCA1 (Q8Y8Q5 whole entry): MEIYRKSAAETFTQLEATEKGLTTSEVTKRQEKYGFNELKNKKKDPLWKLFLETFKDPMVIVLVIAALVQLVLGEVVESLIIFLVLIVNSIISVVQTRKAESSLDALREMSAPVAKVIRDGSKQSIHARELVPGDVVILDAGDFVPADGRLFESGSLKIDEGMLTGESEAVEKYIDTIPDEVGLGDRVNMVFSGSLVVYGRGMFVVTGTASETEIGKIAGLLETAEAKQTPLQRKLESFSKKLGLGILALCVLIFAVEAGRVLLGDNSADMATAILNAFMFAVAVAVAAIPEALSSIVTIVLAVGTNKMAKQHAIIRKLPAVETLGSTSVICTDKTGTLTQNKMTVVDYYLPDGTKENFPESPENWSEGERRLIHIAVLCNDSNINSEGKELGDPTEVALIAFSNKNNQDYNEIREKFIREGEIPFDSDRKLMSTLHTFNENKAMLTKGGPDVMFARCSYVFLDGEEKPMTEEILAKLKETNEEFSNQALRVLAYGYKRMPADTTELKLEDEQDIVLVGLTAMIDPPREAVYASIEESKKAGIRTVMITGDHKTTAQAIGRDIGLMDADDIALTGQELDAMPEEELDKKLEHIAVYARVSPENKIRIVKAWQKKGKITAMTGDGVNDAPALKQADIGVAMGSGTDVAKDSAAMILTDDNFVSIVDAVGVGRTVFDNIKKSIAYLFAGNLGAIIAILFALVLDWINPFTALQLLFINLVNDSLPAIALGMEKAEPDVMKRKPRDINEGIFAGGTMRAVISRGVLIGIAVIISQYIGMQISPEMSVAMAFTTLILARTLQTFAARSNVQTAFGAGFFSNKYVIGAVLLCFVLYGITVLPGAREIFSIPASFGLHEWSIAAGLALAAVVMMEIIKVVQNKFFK

| Structure (SMILES) | IC50 [µM] | Hill coefficient (absence of NaF (H2O)) | Hill coefficient (constant NaF concentration of 0.5 mM) | Hill coefficient |
| --- | --- | --- | --- | --- |
| [Be+2] [BeSO4] | 27 ± 5 | −0.72 ± 0.08 | −1.1 ± 0.1 |  |
| F [NaF] | 2300 ± 200 |  |  | −2.4 and −2.4 ± 0.4 |
